Measured values from US11498899B2, “Nitrone herbicides” (FMC Corporation, priority 2016, dated 2022).

Columns and labels:
[1] = system: barnyardgrass (Echinochloa crus-galli); assay: Test B flooded paddy test, visual rating 0-100; conditions: Flood, 250 g ai/ha, applied to paddy water, rated after 13 to 15 days
[2] = system: ducksalad (Heteranthera limosa); assay: Test B flooded paddy test, visual rating 0-100; conditions: Flood, 250 g ai/ha, applied to paddy water, rated after 13 to 15 days
[3] = system: barnyardgrass (Echinochloa crus-galli); assay: Test A preemergence, visual injury rating 0-100 (0 no effect, 100 complete control); format: in vivo
[4] = system: pigweed (Amaranthus retroflexus); assay: Test A preemergence, visual injury rating 0-100; format: in vivo
kochia (Kochia scoparia) [5] = assay: Test A preemergence, visual injury rating 0-100; format: in vivo
[6] = system: ryegrass, Italian (Italian ryegrass, Lolium multiflorum); assay: Test A preemergence, visual injury rating 0-100; format: in vivo
[7] = system: ragweed (common ragweed, Ambrosia elatior); assay: Test A preemergence, visual injury rating 0-100; format: in vivo
[8] = system: foxtail, giant (giant foxtail, Setaria faberii); assay: Test A preemergence, visual injury rating 0-100; format: in vivo
[9] = system: blackgrass (Alopecurus myosuroides); assay: Test A postemergence, visual injury rating 0-100; format: in vivo; conditions: 0 to 100 scale
[10] = system: galium (catchweed bedstraw, Galium aparine); assay: Test A postemergence, visual injury rating 0-100; format: in vivo; conditions: 0 to 100 scale
[11] = system: barnyardgrass (Echinochloa crus-galli); assay: Test A postemergence, visual injury rating 0-100; format: in vivo; conditions: 0 to 100 scale
[12] = system: pigweed (Amaranthus retroflexus); assay: Test A postemergence, visual injury rating 0-100; format: in vivo; conditions: 0 to 100 scale
kochia (Kochia scoparia) [13] = assay: Test A postemergence, visual injury rating 0-100; format: in vivo; conditions: 0 to 100 scale
[14] = system: ryegrass, Italian (Italian ryegrass, Lolium multiflorum); assay: Test A postemergence, visual injury rating 0-100; format: in vivo; conditions: 0 to 100 scale
[15] = system: ragweed (common ragweed, Ambrosia elatior); assay: Test A postemergence, visual injury rating 0-100; format: in vivo; conditions: 0 to 100 scale
[16] = system: foxtail, giant (giant foxtail, Setaria faberii); assay: Test A postemergence, visual injury rating 0-100; format: in vivo; conditions: 0 to 100 scale
corn (Zea mays) = assay: Test A postemergence, visual injury rating 0-100; format: in vivo; conditions: 0 to 100 scale
[17] = system: wheat (Triticum aestivum); assay: Test A postemergence, visual injury rating 0-100; format: in vivo; conditions: 0 to 100 scale
rice (Oryza sativa) = assay: Test B flooded paddy test, visual rating 0-100 (0 no effect, 100 complete control); conditions: Flood, 250 g ai/ha, applied to paddy water, rated after 13 to 15 days

SMILES	Barnyardgrass plant response rating (0 to 100 scale) [1]	Ducksalad plant response rating (0 to 100 scale) [2]	Barnyardgrass plant response rating (0 to 100 scale) ([3]; 125 g ai/ha)	Barnyardgrass plant response rating (0 to 100 scale) ([3]; 500 g ai/ha)	Pigweed plant response rating (0 to 100 scale) ([4]; 125 g ai/ha)	Pigweed plant response rating (0 to 100 scale) ([4]; 500 g ai/ha)	Kochia plant response rating (0 to 100 scale) (kochia (Kochia scoparia) [5]; 125 g ai/ha)	Kochia plant response rating (0 to 100 scale) (kochia (Kochia scoparia) [5]; 500 g ai/ha)	Ryegrass, Italian plant response rating (0 to 100 scale) ([6]; 125 g ai/ha)	Ryegrass, Italian plant response rating (0 to 100 scale) ([6]; 500 g ai/ha)	Ragweed plant response rating (0 to 100 scale) ([7]; 125 g ai/ha)	Ragweed plant response rating (0 to 100 scale) ([7]; 500 g ai/ha)	Foxtail, Giant plant response rating (0 to 100 scale) ([8]; 125 g ai/ha)	Foxtail, Giant plant response rating (0 to 100 scale) ([8]; 500 g ai/ha)	Blackgrass plant response rating ([9]; 125 g ai/ha)	Blackgrass plant response rating ([9]; 500 g ai/ha)	Galium plant response rating ([10]; 125 g ai/ha)	Galium plant response rating ([10]; 500 g ai/ha)	Barnyardgrass plant response rating ([11]; 125 g ai/ha)	Barnyardgrass plant response rating ([11]; 500 g ai/ha)	further results
CC1=[N+]([O-])C(C(=O)Nc2cccc(F)c2F)C(c2ccc(C)c(Cl)c2)C1 (racemic) [Compound 72]	40	15	80	90	30	30	20	80	30	90	20	90	90	90	60	70	50	50	90	90	Pigweed plant response rating ([12]; 125 g ai/ha): 10; Pigweed plant response rating ([12]; 500 g ai/ha): 30; Kochia plant response rating (kochia (Kochia scoparia) [13]; 125 g ai/ha): 0; Kochia plant response rating (kochia (Kochia scoparia) [13]; 500 g ai/ha): 40; Ryegrass, Italian plant response rating ([14]; 125 g ai/ha): 30; Ryegrass, Italian plant response rating ([14]; 500 g ai/ha): 70; Ragweed plant response rating ([15]; 125 g ai/ha): 0; Ragweed plant response rating ([15]; 500 g ai/ha): 50; Foxtail, Giant plant response rating ([16]; 125 g ai/ha): 50; Foxtail, Giant plant response rating ([16]; 500 g ai/ha): 80; Corn plant response rating (corn (Zea mays); 125 g ai/ha): 40; Corn plant response rating (corn (Zea mays); 500 g ai/ha): 70; Wheat plant response rating ([17]; 125 g ai/ha): 30; Wheat plant response rating ([17]; 500 g ai/ha): 80; Rice plant response rating (0 to 100 scale) (rice (Oryza sativa)): 0
CC1=[N+]([O-])C(C(=O)Nc2cccc(F)c2F)C(c2ccc(C(F)(F)F)c(Br)c2)C1 (racemic) [Compound 73]	0	0	90	90	40	70	20	60	50	90	50	80	80	90	40	80	10	50	30	70	Pigweed plant response rating ([12]; 125 g ai/ha): 30; Pigweed plant response rating ([12]; 500 g ai/ha): 70; Kochia plant response rating (kochia (Kochia scoparia) [13]; 125 g ai/ha): 10; Kochia plant response rating (kochia (Kochia scoparia) [13]; 500 g ai/ha): 20; Ryegrass, Italian plant response rating ([14]; 125 g ai/ha): 0; Ryegrass, Italian plant response rating ([14]; 500 g ai/ha): 60; Ragweed plant response rating ([15]; 125 g ai/ha): 0; Ragweed plant response rating ([15]; 500 g ai/ha): 20; Foxtail, Giant plant response rating ([16]; 125 g ai/ha): 40; Foxtail, Giant plant response rating ([16]; 500 g ai/ha): 70; Corn plant response rating (corn (Zea mays); 125 g ai/ha): 50; Corn plant response rating (corn (Zea mays); 500 g ai/ha): 70; Wheat plant response rating ([17]; 125 g ai/ha): 0; Wheat plant response rating ([17]; 500 g ai/ha): 60; Rice plant response rating (0 to 100 scale) (rice (Oryza sativa)): 0
COc1ccc(C2CC(C)=[N+]([O-])C2C(=O)Nc2cccc(F)c2F)cc1C(F)(F)F (racemic) [Compound 74]	45	20	90	90	0	60	30	90	90	90	40	40	90	90	70	70	20	50	80	90	Pigweed plant response rating ([12]; 125 g ai/ha): 20; Pigweed plant response rating ([12]; 500 g ai/ha): 40; Kochia plant response rating (kochia (Kochia scoparia) [13]; 125 g ai/ha): 0; Kochia plant response rating (kochia (Kochia scoparia) [13]; 500 g ai/ha): 10; Ryegrass, Italian plant response rating ([14]; 125 g ai/ha): 0; Ryegrass, Italian plant response rating ([14]; 500 g ai/ha): 50; Ragweed plant response rating ([15]; 125 g ai/ha): 0; Ragweed plant response rating ([15]; 500 g ai/ha): 20; Foxtail, Giant plant response rating ([16]; 125 g ai/ha): 60; Foxtail, Giant plant response rating ([16]; 500 g ai/ha): 80; Corn plant response rating (corn (Zea mays); 125 g ai/ha): 40; Corn plant response rating (corn (Zea mays); 500 g ai/ha): 80; Wheat plant response rating ([17]; 125 g ai/ha): 60; Wheat plant response rating ([17]; 500 g ai/ha): 60; Rice plant response rating (0 to 100 scale) (rice (Oryza sativa)): 0
CC1=[N+]([O-])C(C(=O)Nc2cccc(F)c2F)C(c2cccc(C)c2C)C1 (racemic) [Compound 77]	75	100	90	90	20	70	10	70	10	90	30	80	90	90	60	80	50	70	80	90	Pigweed plant response rating ([12]; 125 g ai/ha): 0; Pigweed plant response rating ([12]; 500 g ai/ha): 20; Kochia plant response rating (kochia (Kochia scoparia) [13]; 125 g ai/ha): 0; Kochia plant response rating (kochia (Kochia scoparia) [13]; 500 g ai/ha): 20; Ryegrass, Italian plant response rating ([14]; 125 g ai/ha): 40; Ryegrass, Italian plant response rating ([14]; 500 g ai/ha): 70; Ragweed plant response rating ([15]; 125 g ai/ha): 20; Ragweed plant response rating ([15]; 500 g ai/ha): 60; Foxtail, Giant plant response rating ([16]; 125 g ai/ha): 90; Foxtail, Giant plant response rating ([16]; 500 g ai/ha): 90; Corn plant response rating (corn (Zea mays); 125 g ai/ha): 50; Corn plant response rating (corn (Zea mays); 500 g ai/ha): 60; Wheat plant response rating ([17]; 125 g ai/ha): 50; Wheat plant response rating ([17]; 500 g ai/ha): 70; Rice plant response rating (0 to 100 scale) (rice (Oryza sativa)): 0
